Key:
Conditions in all cases: treatment: drug + dasatinib (fixed dose, not stated); 5 days
[1] = system: 786-O; assay: GI50 of drug in presence of dasatinib; higher = less potent
Method: (§1)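 Primary HTS combination arm: 8 RCC cell lines treated with 8 doses (up to 10 uM) of each library drug plus a fixed dose of dasatinib (dose not stated) for 5 days; viability read by CellTiter-Glo and normalised to DMSO. GI50 was fitted with XLfit, AUC is the area under the dose-response curve, and minimum viability is the lowest fraction of DMSO viability across doses.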

[2] = system: ACHN; assay: as above
Method: as §1

[3] = system: UO-31; assay: as above
Method: as §1

[4] = system: A498; assay: as above
Method: as §1

[5] = system: SN12C; assay: as above
Method: as §1

[6] = system: TK-10; assay: as above
Method: as §1

[7] = system: CAKI-1; assay: as above
Method: as §1

[8] = system: 769-P; assay: as above
Method: as §1

[9] = system: 786-O; assay: minimum viability across doses, drug + dasatinib, relative to DMSO (fraction); higher = less growth inhibition
Method: as §1

[10] = system: ACHN; assay: as above
Method: as §1

[11] = system: UO-31; assay: as above
Method: as §1

[12] = system: A498; assay: as above
Method: as §1

[13] = system: SN12C; assay: as above
Method: as §1

[14] = system: TK-10; assay: as above
Method: as §1

[15] = system: CAKI-1; assay: as above
Method: as §1

[16] = system: 769-P; assay: as above
Method: as §1

[17] = system: 786-O; assay: AUC of dose-response viability curve, drug + dasatinib, normalised to DMSO (arbitrary (AUC of normalised viability)); higher = less growth inhibition
Method: as §1

[18] = system: ACHN; assay: as above
Method: as §1

[19] = system: UO-31; assay: as above
Method: as §1

[20] = system: A498; assay: as above
Method: as §1

[21] = system: SN12C; assay: as above
Method: as §1

[22] = system: TK-10; assay: as above
Method: as §1

[23] = system: CAKI-1; assay: as above
Method: as §1

[24] = system: 769-P; assay: as above
Method: as §1

GI50 of drug [1] [nM]	GI50 of drug [2] [nM]	SMILES	GI50 of drug [3] [nM]	GI50 of drug [4] [nM]	GI50 of drug [5] [nM]	GI50 of drug [6] [nM]	GI50 of drug [7] [nM]	GI50 of drug [8] [nM]	minimum viability across doses [9]	minimum viability across doses [10]	minimum viability across doses [11]	minimum viability across doses [12]	minimum viability across doses [13]	minimum viability across doses [14]	minimum viability across doses [15]	minimum viability across doses [16]	AUC of dose-response viability curve [17]	AUC of dose-response viability curve [18]	AUC of dose-response viability curve [19]	AUC of dose-response viability curve [20]	AUC of dose-response viability curve [21]	AUC of dose-response viability curve [22]	AUC of dose-response viability curve [23]	AUC of dose-response viability curve [24]
> 10000	1260	COc1cc2nccc(Oc3ccc(NC(=O)NC4CC4)c(Cl)c3)c2cc1C(N)=O [E7080 (Lenvatinib)] + Cc1nc(Nc2ncc(C(=O)Nc3c(C)cccc3Cl)s2)cc(N2CCN(CCO)CC2)n1 [dasatinib]	7260	> 10000	> 10000	> 10000	431	4520	0.674	0.247	0.338	0.795	0.312	0.682	0.0901	0.321	2.62	1.96	1.8	3.47	2.22	2.65	1.81	2.26
439	77.4	Cc1cc(Nc2cc(N3CCN(C)CC3)nc(/C=C/c3ccccc3)n2)n[nH]1.O=C(O)[C@H](O)[C@@H](O)C(=O)O [ENMD-2076] + Cc1nc(Nc2ncc(C(=O)Nc3c(C)cccc3Cl)s2)cc(N2CCN(CCO)CC2)n1 [dasatinib]	886	1270	400	396	194	1000	0.0877	0.0393	0.0131	0.247	0.0567	0.164	0.00949	0.131	1.78	1.32	2.5	2.4	1.81	1.91	1.4	1.92
8920	206	C#Cc1cccc(Nc2ncnc3cc(OCCOC)c(OCCOC)cc23)c1.Cl [Erlotinib HCl] + Cc1nc(Nc2ncc(C(=O)Nc3c(C)cccc3Cl)s2)cc(N2CCN(CCO)CC2)n1 [dasatinib]	5540	> 10000	> 10000	2440	1060	440	0.469	0.114	0.249	0.718	0.589	0.37	0.125	0.234	2.65	1.73	3.03	3.48	2.54	2.4	1.97	1.94
34.9	24.5	CN1CC[C@H](c2c(O)cc(O)c3c(=O)cc(-c4ccccc4Cl)oc23)[C@H](O)C1.Cl [Flavopiridol hydrochloride] + Cc1nc(Nc2ncc(C(=O)Nc3c(C)cccc3Cl)s2)cc(N2CCN(CCO)CC2)n1 [dasatinib]	252	171	106	119	33.6	86	0.00472	0.00412	0.00894	0.0115	0.00632	0.168	0.0304	0.0135	0.837	0.849	1.98	1.74	1.28	1.53	1.02	1.34
24.5	6.5	CC(C)NC[C@@H](C(=O)N1CCN(c2ncnc3c2[C@H](C)C[C@H]3O)CC1)c1ccc(Cl)cc1 [GDC-0068] + Cc1nc(Nc2ncc(C(=O)Nc3c(C)cccc3Cl)s2)cc(N2CCN(CCO)CC2)n1 [dasatinib]	4910	> 10000	> 10000	1190	1750	> 10000	0.21	0.247	0.0701	0.74	0.563	0.292	0.311	0.628	1.4	1.43	4.11	3.38	2.39	2.07	2.12	2.59
> 10000	4230	OCCn1cc(-c2ccc3c(c2)CC/C3=N\O)c(-c2ccncc2)n1 [GDC-0879] + Cc1nc(Nc2ncc(C(=O)Nc3c(C)cccc3Cl)s2)cc(N2CCN(CCO)CC2)n1 [dasatinib]	> 10000	> 10000	> 10000	> 10000	> 10000	> 10000	0.568	0.354	0.894	0.804	0.686	0.716	0.738	0.605	2.39	2.12	3.45	3.55	2.62	3.05	2.86	2.36
225	82.6	CS(=O)(=O)N1CCN(Cc2cc3nc(-c4cccc5[nH]ncc45)nc(N4CCOCC4)c3s2)CC1 [GDC-0941] + Cc1nc(Nc2ncc(C(=O)Nc3c(C)cccc3Cl)s2)cc(N2CCN(CCO)CC2)n1 [dasatinib]	172	3090	386	302	111	234	0.00743	0.163	0.0152	0.319	0.235	0.171	0.0678	0.111	1.81	1.55	1.71	2.56	1.96	1.93	1.48	1.73
